For assay [1], the system named is Miltenberger Antibody Positive Panel (polyclonal sera and monoclonal antibodies). Put plainly: Reactivity of construct-modified RBCs against the Miltenberger Antibody Positive Panel. It counts as cell-based, human. Also noted: key: 0 or ‘−’=no agglutination; 0 or ‘−’=no agglutination; 1+ or 3=very weak agglutination; 1+ or 3=very weak agglutination; 2+ or 5=weak agglutination; 2+ or 5=weak agglutination; 3+ or 8=moderate strong agglutination; 3+ or 8=moderate strong agglutination; 4+ or 10/12=strong agglutination; 4+ or 10/12=strong agglutination; 4+ or 10/12=strong agglutination. The protocol: Red blood cells are modified by mixing 1 part by volume of washed packed red blood cells with 1 part by volume of peptide-lipid construct dispersed at a concentration of 10 to 1000 μg/ml in cell media (Celpresol™).
(§1) The suspensions are either: • 1. incubated for 2 hours at 37° C. before being washed and suspended in a cell medium for serological analysis at a concentration of 0.8 to 3% (Method 1); or • 2. incubated for 3 to 4 hours at room temperature (circa 25° C.) followed by 18 hours at 4° C. before being washed and suspended in a cell medium for serological analysis at a concentration of 0.8 to 3% (Method 2).
(§2) Serological reactions are graded or scored by either of two established systems (0 or ‘−’=no agglutination, 1+ or 3=very weak agglutination, 2+ or 5=weak agglutination, 3+ or 8=moderate strong agglutination, 4+ or 10/12=strong agglutination)
(§3) Serological platforms used are Tube (addition of reagents and reactants into plastic or glass serology tubes and after appropriate incubations, washing and centrifugation observing reactions macroscopically by eye and a 10× magnification eyepiece and scoring) and BioVue™ (addition of reactants into cassettes containing beads (including some reactants) and after appropriate incubations and centrifugation observing the reaction patterns traped within the Gel matrix). BioVue is the serological column agglutination platform of Ortho-Clinical Diagnostics.

Assay [2] concerns sera reactive with modified RBCs. The assay can be described thus: Neutralisation of reactive sera with peptide and retest against modified RBCs (BioVue cards). It counts as cell-based, human. Also on record: key: 0 or ‘−’=no agglutination; 0 or ‘−’=no agglutination; 1+ or 3=very weak agglutination; 1+ or 3=very weak agglutination; 2+ or 5=weak agglutination; 2+ or 5=weak agglutination; 3+ or 8=moderate strong agglutination; 3+ or 8=moderate strong agglutination; 4+ or 10/12=strong agglutination; 4+ or 10/12=strong agglutination; 4+ or 10/12=strong agglutination. The following applies: for reactivity score, serum + peptide: RBCs modified at 500 μg/ml (Method 1). The protocol:
as §1, §2, §3
Where false positives were observed these could be substantially eliminated by pre-treatment of the sample of serum with the peptide of the peptide-lipid constructs (Table 10 and 11).

Setting [3] is: MUR constructs, RBCs modified at 100 ug/ml.
The mark [4] stands for this setting: MUT constructs, μg/ml used: M1 500, M2 500, M3 1000, M13 250, M21 200.

Groups on a side chain read outwards from the residue. Primed or numbered codes have the meaning given here. No end group written: not given here. *: point of attachment. DOPE = CCCCCCCC/C=C\CCCCCCCC(=O)OC[C@H](COP(=O)(O)OCCN*)OC(=O)CCCCCCC/C=C\CCCCCCCC; S1 PEG = not defined here; PEG6′ = not defined here; Mal = not defined here; Mal″ = maleimide; βAla = NCCC(=O)O

In the case of “M16: DOPE peptide-lipid construct, Mur peptide ThrTyrProAlaHisThrAlaAsnGluVal with terminal Cys, S1 PEG (Table 7) (TYPAHTANEVC([S1 PEG-DOPE]); reading uncertain)”, in assay [1] (setting [3]), the “reactivity score of modified RBCs vs 2 T217” value (shortened to “reactivity score … vs 2 T217”) amounted to 0, the “reactivity score of modified RBCs vs 3 T165” value (“reactivity score … vs 3 T165” below) is given as 10, the “reactivity score of modified RBCs vs 4 T7202” value (from here on “reactivity score … vs 4 T7202”) is on record as 5 and the “reactivity score of modified RBCs vs 6 T6025” value (“reactivity score … vs 6 T6025” below) is listed as 5. In assay [1] (setting [3]), the “reactivity score of modified RBCs vs 7 T8445” value (shortened to “reactivity score … vs 7 T8445”) stood at 12, the “reactivity score of modified RBCs vs 8 T5896” value (“reactivity score … vs 8 T5896” for short) worked out at 0, the “reactivity score of modified RBCs vs 9 MIII monoclonal antibody” value was found to be 0 and the “reactivity score of modified RBCs vs 10 Mia monoclonal antibody” value is 0. For the same substance, in assay [1] (setting [3]), the “reactivity score of modified RBCs vs 11 Mur monoclonal antibody” value is on record as 0, the “reactivity score of modified RBCs vs 12 Gam monoclonal antibody” value is listed as 0 and the “reactivity score of modified RBCs vs 13 BoxH” value turned out to be 0.

Take “DOPE-PEG6-βAla-Mal-18Mur (PAHTANEVC([Mal″-βAla-PEG6′-DOPE])) [M18]”: in assay [1] (setting [3]), the “reactivity score … vs 2 T217” value was determined as 0, the “reactivity score … vs 3 T165” value is given as 10, the “reactivity score … vs 4 T7202” value is given as 0 and the “reactivity score … vs 6 T6025” value was determined as 10. Also, in assay [1] (setting [3]), the “reactivity score … vs 7 T8445” value is reported as 8, the “reactivity score … vs 8 T5896” value is 0, the “reactivity score of modified RBCs vs 9 MIII monoclonal antibody” value was found to be 0 and the “reactivity score of modified RBCs vs 10 Mia monoclonal antibody” value amounted to 0. In assay [1] (setting [3]), the “reactivity score of modified RBCs vs 11 Mur monoclonal antibody” value stood at 0 and the “reactivity score of modified RBCs vs 12 Gam monoclonal antibody” value is recorded as 0.

For “DOPE-PEG6-βAla-Mal-13MUTK (SSQTNDKHKRDTYC([Mal-βAla-PEG6′-DOPE]); reading uncertain; also: printed as DOPE-PEG6-βAla-Mal-13MUTK) [M13]”, in assay [1] (setting [4]), the “reactivity score … vs 2 T217” value was determined as 8, the “reactivity score … vs 3 T165” value was 0, the “reactivity score … vs 4 T7202” value worked out at 8 and the “reactivity score … vs 6 T6025” value worked out at 8. Besides, in assay [1] (setting [4]), the “reactivity score … vs 7 T8445” value stood at 0, the “reactivity score … vs 8 T5896” value is reported as 3, the “reactivity score of modified RBCs vs 9 MIII monoclonal antibody” value was found to be 0 and the “reactivity score of modified RBCs vs 10 Mia monoclonal antibody” value worked out at 0. In assay [1] (setting [4]), the “reactivity score of modified RBCs vs 11 Mur monoclonal antibody” value is 0, the “reactivity score of modified RBCs vs 12 Gam monoclonal antibody” value is 0 and the “reactivity score of modified RBCs vs 13 BoxH” value was 8. Also, in assay [2] (serum #3, RBCs modified at 500 μg/ml (Method 1)), the “reactivity score, serum alone” value is given as 8. Also, the “reactivity score, serum + peptide” value in assay [2] (serum #3 neutralised with peptide SSQTNDKHKRDTY) is recorded as 0. The “reactivity score, serum alone” value in assay [2] (serum #34, RBCs modified at 500 μg/ml (Method 1)) is 8. Further, the “reactivity score, serum + peptide” value in assay [2] (serum #34 neutralised with peptide SSQTNDKHKRDTY) is 0. Besides, in assay [2] (serum #37, RBCs modified at 500 μg/ml (Method 1)), the “reactivity score, serum alone” value stood at 8. The “reactivity score, serum + peptide” value in assay [2] (serum #37 neutralised with peptide SSQTNDKHKRDTY) stood at 0. In assay [2] (serum #42, RBCs modified at 500 μg/ml (Method 1)), the “reactivity score, serum alone” value is 8. In assay [2] (serum #42 neutralised with peptide SSQTNDKHKRDTY), the “reactivity score, serum + peptide” value was determined as 0.

For “DOPE-PEG6-βAla-Mal-21MUTK (SQTNDKHKRDC([Mal″-βAla-PEG6′-DOPE])) [M21]”, in assay [1] (setting [4]), the “reactivity score … vs 2 T217” value is 0, the “reactivity score … vs 3 T165” value came out at 8, the “reactivity score … vs 4 T7202” value is recorded as 0 and the “reactivity score … vs 6 T6025” value is 8. Moreover, in assay [1] (setting [4]), the “reactivity score … vs 7 T8445” value is reported as 0, the “reactivity score … vs 8 T5896” value was 0, the “reactivity score of modified RBCs vs 9 MIII monoclonal antibody” value was determined as 0 and the “reactivity score of modified RBCs vs 10 Mia monoclonal antibody” value is reported as 0. Besides, in assay [1] (setting [4]), the “reactivity score of modified RBCs vs 11 Mur monoclonal antibody” value came to 0, the “reactivity score of modified RBCs vs 12 Gam monoclonal antibody” value came out at 3 and the “reactivity score of modified RBCs vs 15 TAP2” value is 5.
